Several values for one entry are separate records, joined by “and”; a condition that tells them apart may be missing. Identical values can stand only once.
Details: Fluid (supercritical or subcritical phases); for mass density: Buoyancy - hydrostatic balance with magnetic suspension - one sinker; for viscosity: vibrating wire

CC [ethane]
Details | mass density, 293.15 K | mass density, 307.15 K [kg/m3] | viscosity, 293.15 K | viscosity, 307.15 K
64.37 kPa | 0.79811 kg/m3 | – | 0.009075 mPa·s and 0.009074 mPa·s | –
80.37 kPa | 0.99778 kg/m3 | – | 0.009076 mPa·s | –
80.42 kPa | 0.99851 kg/m3 | – | 0.009075 mPa·s | –
80.48 kPa | 0.99923 kg/m3 | – | 0.009073 mPa·s | –
92.55 kPa | – | 1.0967 | – | 0.009492 mPa·s
92.62 kPa | – | 1.0975 | – | 0.009489 mPa·s
97.81 kPa | – | 1.1594 | – | 0.009507 mPa·s and 0.009508 mPa·s
160.1 kPa | 2.0005 kg/m3 | – | 0.009083 mPa·s and 0.009082 mPa·s | –
160.16 kPa | 2.0012 kg/m3 | – | 0.009082 mPa·s | –
160.18 kPa | – | 1.907 | – | 0.00951 mPa·s and 0.009508 mPa·s
166.71 kPa | – | 1.9856 | – | 0.009531 mPa·s
166.77 kPa | – | 1.9863 | – | 0.009529 mPa·s
315.97 kPa | 3.9991 kg/m3 | – | 0.009102 mPa·s | –
316.05 kPa | 4.0002 kg/m3 | – | 0.009098 mPa·s and 0.009099 mPa·s | –
327.38 kPa | – | 3.9439 | – | 0.009566 mPa·s
332.45 kPa | – | 4.0065 | – | 0.009542 mPa·s and 0.009543 mPa·s
467.91 kPa | 5.9992 kg/m3 | – | 0.009118 mPa·s | –
467.96 kPa | 5.9999 kg/m3 | – | 0.009119 mPa·s | –
468.01 kPa | 6.0006 kg/m3 | – | 0.009118 mPa·s | –
493.91 kPa | – | 6.0228 | – | 0.009573 mPa·s
493.97 kPa | – | 6.0235 | – | 0.009572 mPa·s
615.93 kPa | 8.0004 kg/m3 | – | 0.009139 mPa·s and 0.009137 mPa·s | –
616.03 kPa | 8.0018 kg/m3 | – | 0.009137 mPa·s | –
649.95 kPa | – | 8.0188 | – | 0.009604 mPa·s
650.01 kPa | – | 8.0195 | – | 0.009604 mPa·s
759.69 kPa | 9.9972 kg/m3 | – | 0.009162 mPa·s and 0.009165 mPa·s | –
788.48 kPa | – | 9.8322 | – | 0.009663 mPa·s
788.7 kPa | – | 9.8351 | – | 0.009665 mPa·s
800.35 kPa | – | 9.9895 | – | 0.009635 mPa·s
800.41 kPa | – | 9.9903 | – | 0.009639 mPa·s and 0.009636 mPa·s
889.73 kPa | 11.852 kg/m3 | – | 0.009183 mPa·s and 0.009184 mPa·s | –
889.87 kPa | 11.854 kg/m3 | – | 0.009183 mPa·s | –
959.13 kPa | – | 12.123 | – | 0.009675 mPa·s
959.2 kPa | – | 12.124 | – | 0.009674 mPa·s
1036.2 kPa | 14.001 kg/m3 | – | 0.009212 mPa·s and 0.009213 mPa·s | –
1036.3 kPa | 14.002 kg/m3 | – | 0.009213 mPa·s | –
1094.4 kPa | – | 13.987 | – | 0.009709 mPa·s
1094.5 kPa | – | 13.988 | – | 0.00971 mPa·s
1167.2 kPa | 15.979 kg/m3 | – | 0.009246 mPa·s | –
1167.3 kPa | 15.98 kg/m3 and 15.981 kg/m3 | – | 0.009243 mPa·s | –
1233.8 kPa | – | 15.953 | – | 0.009746 mPa·s
1233.9 kPa | – | 15.955 | – | 0.009746 mPa·s
1293.6 kPa | 17.943 kg/m3 | – | 0.009274 mPa·s | –
1293.8 kPa | 17.946 kg/m3 | – | 0.009275 mPa·s | –
1343.4 kPa | – | 17.536 | – | 0.009778 mPa·s
1420.8 kPa | 19.979 kg/m3 | – | 0.009305 mPa·s and 0.009308 mPa·s | –
1421 kPa | 19.983 kg/m3 | – | 0.00931 mPa·s | –
1469.3 kPa | – | 19.394 | – | 0.009855 mPa·s
1469.5 kPa | – | 19.396 | – | 0.009856 mPa·s
1502.4 kPa | – | 19.889 | – | 0.00983 mPa·s and 0.009828 mPa·s
1992.4 kPa | 30.002 kg/m3 | – | 0.009506 mPa·s | –
1992.5 kPa | 30.004 kg/m3 | – | 0.009506 mPa·s | –
1992.6 kPa | 30.006 kg/m3 | – | 0.009505 mPa·s | –
2477.2 kPa | 40.017 kg/m3 | – | 0.009749 mPa·s | –
2477.4 kPa | 40.022 kg/m3 | – | 0.009748 mPa·s | –
2477.6 kPa | 40.026 kg/m3 | – | 0.009748 mPa·s | –
2879.7 kPa | 49.983 kg/m3 | – | 0.01003 mPa·s | –
2879.9 kPa | 49.988 kg/m3 | – | 0.01003 mPa·s | –
3212.1 kPa | 60.071 kg/m3 | – | 0.01036 mPa·s | –
3212.2 kPa | 60.073 kg/m3 | – | 0.01036 mPa·s | –
3212.3 kPa | 60.079 kg/m3 | – | 0.01036 mPa·s | –
3471.9 kPa | 70.014 kg/m3 | – | 0.01073 mPa·s | –
3472 kPa | 70.02 kg/m3 | – | 0.01073 mPa·s | –
3472.2 kPa | 70.027 kg/m3 | – | 0.01073 mPa·s | –
3577.6 kPa | 74.947 kg/m3 | – | 0.01093 mPa·s | –
3577.8 kPa | 74.957 kg/m3 | – | 0.01092 mPa·s | –

— the NIST ThermoML archive (doi:10.1021/je101178u)
